Data published in PMC11125039, “An Effective Modification Strategy to Build Multifunctional Peptides Based on a Trypsin Inhibitory Peptide of the Kunitz Family” (Pharmaceutics, 2024).
Like-named read-outs stand apart in the source and are kept apart here. Bridge positions count the residues as written; N and C are the ends. Peptide text beside a SMILES is read from it.

What was measured:
[1] = tested on: E. coli (BAA 2340)-infected waxworms; type: in vivo, Galleria mellonella
Experimental: The larvae of Galleria mellonella were used to evaluate the in vivo antibacterial activity of the peptides. In this assay, the larvae (250 ± 25 mg) (Livefood UK Ltd., Rooks Bridge, UK) of the infected group were infected with 10 μL of a bacterial suspension (1 × 10^7 CFU/mL). After one hour, 10 μL of a peptide solution was injected into each infected larva. As a positive control, infected larvae received 20 mg/kg of rifampicin. The vehicle control consisted of uninfected larvae administered 10 μL of PBS. All larvae were then monitored every 24 h for a duration of five days.

H838 = assay: Antiproliferation assay (MTT); type: cell-based, human; details: H838, 24 h
Experimental: (§4) The tested human cell lines in this assay included cancerous and non-cancerous cell lines: a human breast cancer cell line (MCF-7), a human lung carcinoma cell line (H838), a human colorectal carcinoma cell line (HCT116), and a human glioblastoma astrocytoma cell line (U251MG); these cell lines were incubated with the peptides at concentrations between 10^−4 to 10^−9 M to study their antiproliferation ability against cancer cells. Also, for the safety evaluation, a human skin keratinocyte cell line (HaCaT) was selected to investigate the cytotoxicity of peptides against normal human cells.
(§5) At first, after the stock cells were revived, they were transferred into a 75 mL flask with 10 mL of the corresponding culture medium and cultured for 3–5 days at 37 °C until most cells had attached to the flask wall. Then, the culture medium was removed, and 10 mL of PBS was used to wash the wall twice and discarded. Subsequently, 3–4 mL of a trypsin solution was added for 2–3 min to detach the cells from the container wall and then 8–10 mL of FBS was added to stop the digestion reaction. The cell suspension was transferred into a 15 mL tube and centrifuged. The supernatant was removed and 4 mL of complete growth medium was added to this tube to prepare a stock cell suspension. […] After 10 min of shaking, the cell viability in each well was read at a wavelength of 570 nm.

E. coli (NCTC 13846) [2] = assay: Time-killing kinetic assay; type: cell-based, Escherichia coli; details: for killing kinetics (in words): MIC, 2 × MIC and 4 × MIC
Experimental: (§1) The time-killing kinetic assay was executed to explore the killing efficiency of the peptides against bacteria. […] The bacteria were cultured using the same method as that employed in the antimicrobial activity determination assay. […] All colonies were counted and recorded after the seeded plates had been incubated at 37 °C for 24 h.

E. coli (BAA 2340) [3] = assay: Time-killing kinetic assay; type: cell-based, Escherichia coli
Experimental: as §1

HCT116 = assay: Antiproliferation assay (MTT); type: cell-based, human; details: HCT116, 24 h
Experimental: as §4
At first, after the stock cells were revived, they were transferred into a 75 mL flask with 10 mL of the corresponding culture medium and cultured for 3–5 days at 37 °C until most cells had attached to the flask wall. Then, the culture medium was removed, and 10 mL of PBS was used to wash the wall twice and discarded. Subsequently, 3–4 mL of a trypsin solution was added for 2–3 min to detach the cells from the container wall and then 8–10 mL of FBS was added to stop the digestion reaction. The cell suspension was transferred into a 15 mL tube and centrifuged. The supernatant was removed and 4 mL of complete growth medium was added to this tube to prepare a stock cell suspension. Approximately 10 µL of a mixture containing an equal volume of trypan blue and cell medium was dropped into a chamber to measure the density of cells under the microscope. Based on the cell density, the cell suspension was diluted with foetal bovine serum (FBS) (Sigma-Aldrich, St. Louis, MO, USA) to the standard cell density (H838, MCF-7: 8 × 10^4; U251MG: 5 × 10^4; HCT116: 2 × 10^5; HaCaT: 2 ×10^5 cells/mL). Then, it was seeded into a 96-well plate at 100 μL/well. After 20–24 h incubation, 100 μL of serum-free medium was used to replace the previous FBS medium and the plate was incubated another 4 h for cell starvation. At the same time, the peptide was dissolved in DMSO at a concentration of 10^−2 M and then mixed with the serum-free medium at working concentrations ranging from 10^−7 to 10^−4 M. Finally, the medium in the 96-well plate was replaced with the peptide solutions. The experimental group used 100 μL of the working concentration peptide solution. The vehicle group consisted of 1 µL of DMSO and 99 µL of serum-free medium. The blank and growth groups both comprised 100 µL of serum-free medium. The loaded 96-well plate was incubated for another 24 h for the treatment. The next day, 10 µL of MTT was added to each well and incubated for 2 h, after which, all media in each well were discarded and substituted with 100 μL of DMSO. After 10 min of shaking, the cell viability in each well was read at a wavelength of 570 nm.

U251MG = assay: Antiproliferation assay (MTT); type: cell-based, human; details: 24 h
Experimental: as §4
(§6) At first, after the stock cells were revived, they were transferred into a 75 mL flask with 10 mL of the corresponding culture medium and cultured for 3–5 days at 37 °C until most cells had attached to the flask wall. Then, the culture medium was removed, and 10 mL of PBS was used to wash the wall twice and discarded. Subsequently, 3–4 mL of a trypsin solution was added for 2–3 min to detach the cells from the container wall and then 8–10 mL of FBS was added to stop the digestion reaction. The cell suspension was transferred into a 15 mL tube and centrifuged. The supernatant was removed and 4 mL of complete growth medium was added to this tube to prepare a stock cell suspension. Approximately 10 µL of a mixture containing an equal volume of trypan blue and cell medium was dropped into a chamber to measure the density of cells under the microscope. Based on the cell density, the cell suspension was diluted with foetal bovine serum (FBS) (Sigma-Aldrich, St. Louis, MO, USA) to the standard cell density (H838, MCF-7: 8 × 10^4; U251MG: 5 × 10^4; HCT116: 2 × 10^5; HaCaT: 2 ×10^5 cells/mL). Then, it was seeded into a 96-well plate at 100 μL/well. After 20–24 h incubation, 100 μL of serum-free medium was used to replace the previous FBS medium and the plate was incubated another 4 h for cell starvation. […] After 10 min of shaking, the cell viability in each well was read at a wavelength of 570 nm.

HaCaT = assay: Antiproliferation assay (MTT), normal cell cytotoxicity; type: cell-based, human; details: HaCaT (normal cell line), 24 h
Experimental: as §4, §6

MCF-7 = details: MCF-7, 24 h, MTT
Experimental: as §4, §5

E. coli (NCTC 13846) [4] = assay: SYTOX Green permeability assay; type: cell-based, Escherichia coli; details: at the MIC
Experimental: (§2) The SYTOX^TM Green Nucleic Acid Stain (ThermoFisher Scientific, Waltham, MA, USA) assay was used to investigate the antibacterial mechanism of the peptides as they cannot cross intact membranes, but can easily penetrate the damaged membranes characteristic of dead cells.
(§3) After being sub-cultured for 2 h, the bacteria were centrifuged at 1000× g for 10 min at 4 °C; then, the culture medium was discarded. […] After a third wash, the bacteria were diluted with the same solution until they reached the logarithmic growth phase in which the OD value just reached 0.70 at a wavelength of 590 nm. […] Finally, 10 μL of SYTOX^TM green nucleic acid stain (5 μM) was added to the plate and the mixture was incubated at 37 °C under dark conditions for another 5 min. […] Bacterial medium with 5% TSB acted as the negative control; bacterial medium treated with a melittin peptide solution (8 μM) was set as the positive control; 5% TSB alone was the blank control.

E. coli (BAA 2340) [5] = assay: SYTOX Green permeability assay; type: cell-based, Escherichia coli; details: at the MIC
Experimental: as §2, §3

E. coli (ATCC CRM 8739) = assay: SYTOX Green permeability assay; type: cell-based, Escherichia coli; details: at the MIC
Experimental: as §2, §3

[6] = 4 × MIC of peptide, after 120 h of infection

Compound	mortality of infected larvae [1, 6]	IC50 (H838)	killing kinetics (in words) (E. coli (NCTC 13846) [2])	time to kill bacteria (E. coli (BAA 2340) [3]; at the MIC)	IC50 (HCT116)	IC50 (U251MG)	IC50 (HaCaT)	IC50 (MCF-7)	other results
CC[C@H](C)[C@H](N)C(=O)N[C@@H](CCCCN)C(=O)N[C@@H](Cc1ccccc1)C(=O)N[C@@H](CCCCN)C(=O)N[C@H](C(=O)N[C@@H](Cc1c[nH]cn1)C(=O)N[C@@H](Cc1ccccc1)C(=O)N[C@@H](CCCNC(=N)N)C(=O)N[C@H]1CSSC[C@@H](C(=O)O)NC(=O)[C@H](Cc2ccccc2)NC(=O)[C@H](C)NC(=O)[C@H](C)NC(=O)[C@H](CCCCN)NC1=O)C(C)C [OSTI−1696] (H-IKFKVHFRCKAAFC-OH; disulfide 9-14; N-terminus and C-terminus assumed)	20%	N.I.	almost instant bactericidal activity	≤ 10 min	N.I.	N.I.	–	–	time to kill bacteria (E. coli (BAA 2340) [3]; at 2 × MIC): ≤ 5 min; time to kill bacteria (E. coli (BAA 2340) [3]; at 4 × MIC): ≤ 5 min
CC[C@H](C)[C@H](NC(=O)[C@@H](N)C(C)C)C(=O)N[C@@H](Cc1ccccc1)C(=O)N[C@@H](CCCCN)C(=O)N[C@H](C(=O)N[C@@H](Cc1ccccc1)C(=O)N[C@@H](Cc1c[nH]c2ccccc12)C(=O)N[C@@H](CCCNC(=N)N)C(=O)N[C@H]1CSSC[C@@H](C(=O)O)NC(=O)[C@H](Cc2ccccc2)NC(=O)[C@H](C)NC(=O)[C@H](C)NC(=O)[C@H](CCCCN)NC1=O)C(C)C [OSTI−1716] (H-VIFKVFWRCKAAFC-OH; disulfide 9-14; N-terminus and C-terminus assumed)	–	–	–	–	N.I.	–	–	–	–
CC[C@H](C)[C@H](NC(=O)[C@H](CC(N)=O)NC(=O)[C@@H](NC(=O)[C@H](C)N)C(C)C)C(=O)N1CCC[C@H]1C(=O)N[C@@H](Cc1ccccc1)C(=O)N[C@@H](CCCCN)C(=O)N[C@H](C(=O)N[C@@H](Cc1c[nH]cn1)C(=O)N[C@@H](Cc1ccccc1)C(=O)N[C@@H](CCCNC(=N)N)C(=O)N[C@H]1CSSC[C@@H](C(=O)O)NC(=O)[C@H](Cc2ccccc2)NC(=O)[C@H](C)NC(=O)[C@H](C)NC(=O)[C@H](CCCCN)NC1=O)C(C)C [OSTI−1949] (H-AVNIPFKVHFRCKAAFC-OH; disulfide 12-17; N-terminus and C-terminus assumed)	–	N.I.	–	–	N.I.	N.I.	N.I.	N.I.	uptake of SYTOX Green (E. coli (NCTC 13846) [4]): approximately 50%; uptake of SYTOX Green (E. coli (BAA 2340) [5]): approximately 50%; uptake of SYTOX Green (E. coli (ATCC CRM 8739)): approximately 50%
CC(C)[C@H](NC(=O)[C@H](C)N)C(=O)N[C@@H](CCCCN)C(=O)N[C@@H](CCCNC(=N)N)C(=O)N[C@@H](C)C(=O)N[C@H](C(=O)N[C@@H](CCCCN)C(=O)N[C@@H](CCCNC(=N)N)C(=O)N[C@@H](Cc1ccccc1)C(=O)N[C@@H](CCCCN)C(=O)N[C@H](C(=O)N[C@@H](Cc1c[nH]cn1)C(=O)N[C@@H](Cc1ccccc1)C(=O)N[C@@H](CCCNC(=N)N)C(=O)N[C@H]1CSSC[C@@H](C(=O)O)NC(=O)[C@H](Cc2ccccc2)NC(=O)[C@H](C)NC(=O)[C@H](C)NC(=O)[C@H](CCCCN)NC1=O)C(C)C)C(C)C [OSTI−2363] (H-AVKRAVKRFKVHFRCKAAFC-OH; disulfide 15-20; N-terminus and C-terminus assumed)	40%	–	almost instant bactericidal activity	≤ 5 min	N.I.	N.I.	N.I.	N.I.	time to kill bacteria (E. coli (NCTC 13846) [2]; lowest tested concentration (MIC)): ≤ 5 min; killing kinetics (in words) (E. coli (BAA 2340) [3]; MIC, 2 × MIC and 4 × MIC): almost instant bactericidal activity
CC[C@H](C)[C@H](NC(=O)[C@H](CC(N)=O)NC(=O)[C@@H](NC(=O)[C@H](C)N)C(C)C)C(=O)N1CCC[C@H]1C(=O)N[C@@H](Cc1ccccc1)C(=O)N[C@@H](CCCCN)C(=O)N[C@H](C(=O)N[C@@H](Cc1c[nH]cn1)C(=O)N[C@@H](Cc1ccccc1)C(=O)N[C@@H](CCCCN)C(=O)N[C@H](C(=O)N[C@@H](Cc1c[nH]cn1)C(=O)N[C@@H](Cc1ccccc1)C(=O)N[C@@H](CCCNC(=N)N)C(=O)N[C@H]1CSSC[C@@H](C(=O)O)NC(=O)[C@H](Cc2ccccc2)NC(=O)[C@H](C)NC(=O)[C@H](C)NC(=O)[C@H](CCCCN)NC1=O)C(C)C)C(C)C [OSTI−2461] (H-AVNIPFKVHFKVHFRCKAAFC-OH; disulfide 16-21; N-terminus and C-terminus assumed)	–	–	–	–	N.I.	–	N.I.	–	–
CO[C@H]1/C=C/O[C@@]2(C)Oc3c(C)c(O)c4c(O)c(c(/C=N/N5CCN(C)CC5)c(O)c4c3C2=O)NC(=O)/C(C)=C\C=C\[C@H](C)[C@H](O)[C@@H](C)[C@@H](O)[C@@H](C)[C@H](OC(C)=O)[C@@H]1C [rifampicin, reference compound]	–	–	–	–	–	–	–	–	mortality of infected larvae ([1]; 20 mg/kg, 5 days, positive control): 20%
